Test results from paper PMC10819887, “Production of AFB1 High-Specificity Monoclonal Antibody by Three-Stage Screening Combined with the De-Homologation of Antibodies and the Development of High-Throughput icELISA” (Toxins, 2023).
Values joined by “and” are separate entries in the source; they are usually repeats but may differ in a detail not shown here. Equal values may be shown once.

How the values were obtained:
[1] = tested on: anti-AFB1 mAb (ZFG8); format: binding, mouse
[2] = tested on: ZFG8 monoclonal antibody; experiment: icELISA working-condition optimization and standard curves (ZFG8, AFB1-BSA); format: binding, mouse

Substance: aflatoxin B1 [AFB1]
- Cross-Reactivity (%) [1]: 100%
- IC50 [1]: 0.3162 ng/mL
- IC20-IC80 [2]: 0.04197 to 0.6299 ng/mL and 0.03329 to 0.9399 ng/mL
- IC20-IC80 (linear detection range) [2]: 0.0422 to 1.293 ng/mL
- IC50 ([2]; pH 7.4): 0.1811 ng/mL
